Test results: patent US8987500B2, “4-biphenyl-substituted pyrazolidin-3,5-dione derivatives” (Bayer CropScience AG, priority 2003, dated 2015)

Columns and labels:
Format in all cases: in vivo
[1] = system: larvae of the mustard beetle (Phaedon cochleariae); assay: Phaedon test (spray treatment), Example E; settings: Table E, 500 g/ha active compound
Procedure: (§1) Phaedon Test (Spray Treatment) [table] To produce a suitable preparation of active compound, 1 part by weight of active compound is mixed with the stated amounts of solvents and emulsifier, and the concentrate is diluted with emulsifier-containing water to the desired concentration. Discs of Chinese cabbage (Brassica pekinensis) are sprayed with a preparation of active compound of the desired concentration and, after they have dried, populated with larvae of the mustard beetle (Phaedon cochleariae). After the desired period of time, the activity in % is determined 100% means that all beetle larvae have been killed; 0% means that none of the beetle larvae have been killed.

[2] = system: greenhouse red spider mite (Tetranychus urticae); assay: Tetranychus test (OP-resistant/spray treatment), Example G; settings: Tetranychus urticae (OP-resistant), bean leaf discs, spray treatment
Procedure: Tetranychus Test (OP-Resistant/Spray Treatment)
To produce a suitable preparation of active compound, 1 part by weight of active compound is mixed with the stated amounts of solvents and emulsifier, and the concentrate is diluted with emulsifier-containing water to the desired concentration.
Discs of bean leaves (Phaseolus vulgaris) which are infested by all stages of the greenhouse red spider mite (Tetranychus urticae) are sprayed with a preparation of active compound of the desired concentration.
After the desired period of time, the activity in % is determined 100% means that all spider mites have been killed; 0% means that none of the spider mites have been killed.

[3] = system: caterpillars of the army worm (Spodoptera frugiperda); assay: Spodoptera frugiperda test (spray treatment), Example F; settings: maize leaf discs
Procedure: as §1, with “Spodoptera frugiperda” for “Phaedon”, “maize leaves (Zea mays)” for “Chinese cabbage (Brassica pekinensis)”, “caterpillars” for “larvae”, “army worm (Spodoptera frugiperda).” for “mustard beetle (Phaedon cochleariae).”, “caterpillars” for “beetle larvae”

## CCOC(=O)Oc1c(-c2cc(-c3cc(Cl)cc(Cl)c3)ccc2C)c(=O)n2n1CCOCC2 [Ex. I-2-c-14]
[1]
  Kill rate in % after 7d: 100%

## Cc1ccc(-c2ccc(Cl)c(Cl)c2)cc1-c1c(OC(=O)C(C)(C)C)n2n(c1=O)CCCC2 [Ex. I-1-b-13]
[1]
  Kill rate in % after 7d: 100%

## Cc1ccc(-c2ccc(F)cc2)cc1-c1c(OC(=O)C(C)(C)C)n2n(c1=O)CCOCC2 [Ex. I-2-b-6]
[2]; 100 g/ha
  Kill rate in % after 5d: 90%

## CCOC(=O)Oc1c(-c2cc(-c3ccc(Cl)cc3Cl)ccc2C)c(=O)n2n1CCOCC2 [Ex. I-2-c-11]
[1]
  Kill rate in % after 7d: 100%

## CCOC(=O)Oc1c(-c2cc(-c3ccc(Cl)cc3Cl)ccc2C)c(=O)n2n1CCCC2 [Ex. I-1-c-11]
[2]; 500 g/ha
  Kill rate in % after 5d: 100%

## Cc1ccc(-c2ccc(Cl)c(Cl)c2)cc1-c1c(O)n2n(c1=O)CCCC2 [Example I-1-a-13]
[1]
  Kill rate in % after 7d: 100%

## Cc1ccc(-c2cc(F)ccc2F)cc1-c1c(OC(=O)C(C)(C)C)n2n(c1=O)CCCC2 [Ex. I-1-b-16]
[1]
  Kill rate in % after 7d: 100%

## Cc1ccc(-c2ccc(C)c(-c3c(OC(=O)C(C)(C)C)n4n(c3=O)CCCC4)c2)cc1 [Ex. I-1-b-9]
[2]; 500 g/ha
  Kill rate in % after 5d: 100%

## CCOC(=O)Oc1c(-c2cc(-c3cccc([N+](=O)[O-])c3)ccc2C)c(=O)n2n1CCOCC2 [Ex. I-2-c-26]
[2]; 100 g/ha
  Kill rate in % after 5d: 90%

## CCOC(=O)Oc1c(-c2cc(-c3ccc(F)c(Cl)c3)ccc2C)c(=O)n2n1CCOCC2 [Ex. I-2-c-17]
[1]
  Kill rate in % after 7d: 100%

## Cc1ccc(-c2cccc([N+](=O)[O-])c2)cc1-c1c(O)n2n(c1=O)CCOCC2 [Example I-2-a-26]
[1]
  Kill rate in % after 7d: 100%

## Cc1ccc(-c2ccc(Oc3ccccc3)cc2)cc1-c1c(OC(=O)C(C)(C)C)n2n(c1=O)CCCC2 [Ex. I-1-b-28]
[2]; 500 g/ha
  Kill rate in % after 5d: 100%

## CCOC(=O)Oc1c(-c2cc(-c3ccc(C)cc3)ccc2C)c(=O)n2n1CCCC2 [Ex. I-1-c-9]
[1]
  Kill rate in % after 7d: 100%

## Cc1cc(C)c(-c2c(OC(=O)C(C)(C)C)n3n(c2=O)CCOCC3)c(C)c1-c1ccc(F)cc1 [Ex. I-2-b-32]
[1]
  Kill rate in % after 7d: 100%

## CCOC(=O)Oc1c(-c2cc(-c3ccc(F)cc3F)ccc2C)c(=O)n2n1CCOCC2 [Ex. I-2-c-15]
[1]
  Kill rate in % after 7d: 100%

## Cc1ccc(-c2ccc(Cl)cc2)cc1-c1c(OC(=O)C(C)C)n2n(c1=O)CCCC2 [Ex. I-1-b-32]
[3]; 100 g/ha
  Kill rate in % after 7d: 100%

## Cc1ccc(-c2ccc(F)c(Cl)c2)cc1-c1c(O)n2n(c1=O)CCCC2 [Example I-1-a-17]
[2]; 500 g/ha
  Kill rate in % after 5d: 90%

## Cc1ccc(-c2ccc(F)cc2F)cc1-c1c(OC(=O)C(C)(C)C)n2n(c1=O)CCCC2 [Ex. I-1-b-15]
[3]; 500 g/ha
  Kill rate in % after 7d: 100%

## CCOC(=O)Oc1c(-c2cc(-c3ccc(C)cc3)ccc2C)c(=O)n2n1CCOCC2 [Ex. I-2-c-9]
[1]
  Kill rate in % after 7d: 100%

## Cc1ccc(-c2ccc(C(F)(F)F)cc2)cc1-c1c(OC(=O)C(C)(C)C)n2n(c1=O)CCOCC2 [Ex. I-2-b-20]
[3]; 500 g/ha
  Kill rate in % after 7d: 100%

## Cc1ccc(-c2cccc(Cl)c2)cc1-c1c(OC(=O)C(C)(C)C)n2n(c1=O)CCOCC2 [Ex. I-2-b-2]
[3]; 500 g/ha
  Kill rate in % after 7d: 100%

## Cc1ccc(-c2cccc(Cl)c2Cl)cc1-c1c(O)n2n(c1=O)CCCC2 [Example I-1-a-10]
[2]; 500 g/ha
  Kill rate in % after 5d: 90%

## CCOC(=O)Oc1c(-c2cc(-c3ccc(OC)cc3)ccc2C)c(=O)n2n1CCOCC2 [Ex. I-2-c-23]
[2]; 500 g/ha
  Kill rate in % after 5d: 100%

## Cc1ccc(-c2ccc(F)cc2)cc1-c1c(O)n2n(c1=O)CCOCC2 [Example I-2-a-6]
[3]; 500 g/ha
  Kill rate in % after 7d: 100%

## CCOC(=O)Oc1c(-c2cc(-c3ccc(Cl)c(Cl)c3)ccc2C)c(=O)n2n1CCCC2 [Ex. I-1-c-13]
[3]; 500 g/ha
  Kill rate in % after 7d: 83%

## CCOC(=O)Oc1c(-c2cc(-c3cccc(F)c3)ccc2C)c(=O)n2n1CCOCC2 [Ex. I-2-c-5]
[3]; 500 g/ha
  Kill rate in % after 7d: 100%

## Cc1ccc(-c2cccc(F)c2)cc1-c1c(OC(=O)C(C)(C)C)n2n(c1=O)CCOCC2 [Ex. I-2-b-5]
[3]; 500 g/ha
  Kill rate in % after 7d: 100%

## Cc1ccc(-c2cccc(Cl)c2Cl)cc1-c1c(OC(=O)C(C)(C)C)n2n(c1=O)CCCC2 [Ex. I-1-b-10]
[2]; 500 g/ha
  Kill rate in % after 5d: 90%

## Cc1ccc(-c2cccc(C(F)(F)F)c2)cc1-c1c(OC(=O)C(C)(C)C)n2n(c1=O)CCOCC2 [Ex. I-2-b-19]
[1]
  Kill rate in % after 7d: 100%

## CCOC(=O)Oc1c(-c2cc(-c3ccc(C(F)(F)F)cc3)ccc2C)c(=O)n2n1CCOCC2 [Ex. I-2-c-20]
[3]; 500 g/ha
  Kill rate in % after 7d: 100%

## Cc1cc(C)c(-c2c(OC(=O)C(C)(C)C)n3n(c2=O)CCCC3)c(C)c1-c1ccc(F)cc1 [Ex. I-1-b-34]
[2]; 500 g/ha
  Kill rate in % after 5d: 90%

## CCOC(=O)Oc1c(-c2cc(-c3cc(F)ccc3F)ccc2C)c(=O)n2n1CCCC2 [Ex. I-1-c-16]
[2]; 500 g/ha
  Kill rate in % after 5d: 100%

## Cc1ccc(-c2cccc(Cl)c2)cc1-c1c(O)n2n(c1=O)CCOCC2 [Example I-2-a-2]
[2]; 500 g/ha
  Kill rate in % after 5d: 90%

## CCOC(=O)Oc1c(-c2cc(-c3cccc(Cl)c3)ccc2C)c(=O)n2n1CCOCC2 [Ex. I-2-c-2]
[3]; 500 g/ha
  Kill rate in % after 7d: 83%

## CCOC(=O)Oc1c(-c2cc(-c3cc(Cl)ccc3Cl)ccc2C)c(=O)n2n1CCOCC2 [Ex. I-2-c-12]
[1]
  Kill rate in % after 7d: 100%

## CCOC(=O)Oc1c(-c2cc(-c3ccccc3C)ccc2C)c(=O)n2n1CCOCC2 [Ex. I-2-c-7]
[1]
  Kill rate in % after 7d: 100%

## CCOC(=O)Oc1c(-c2cc(-c3cc(Cl)cc(Cl)c3)ccc2C)c(=O)n2n1CCCC2 [Ex. I-1-c-14]
[1]
  Kill rate in % after 7d: 100%

## CCOC(=O)Oc1c(-c2cc(-c3ccccc3C)ccc2C)c(=O)n2n1CCCC2 [Ex. I-1-c-7]
[2]; 500 g/ha
  Kill rate in % after 5d: 100%

## CCOC(=O)Oc1c(-c2cc(-c3ccc(Cl)cc3)ccc2C)c(=O)n2n1CCOCC2 [Ex. I-2-c-3]
[3]; 500 g/ha
  Kill rate in % after 7d: 100%

## Cc1ccc(-c2cccc(Cl)c2Cl)cc1-c1c(OC(=O)C(C)(C)C)n2n(c1=O)CCOCC2 [Ex. I-2-b-10]
[2]; 500 g/ha
  Kill rate in % after 5d: 100%

## Cc1ccc(-c2ccc(F)c(Cl)c2)cc1-c1c(OC(=O)C(C)(C)C)n2n(c1=O)CCOCC2 [Ex. I-2-b-17]
[1]
  Kill rate in % after 7d: 100%

## CCOC(=O)Oc1c(-c2cc(-c3cccc(C(F)(F)F)c3)ccc2C)c(=O)n2n1CCOCC2 [Ex. I-2-c-19]
[1]
  Kill rate in % after 7d: 100%

## CCOC(=O)Oc1c(-c2cc(-c3ccccc3F)ccc2C)c(=O)n2n1CCOCC2 [Ex. I-2-c-4]
[1]
  Kill rate in % after 7d: 100%

## Cc1ccc(-c2ccc(Cl)c(Cl)c2)cc1-c1c(O)n2n(c1=O)CCOCC2 [Example I-2-a-13]
[1]
  Kill rate in % after 7d: 100%

## CCOC(=O)Oc1c(-c2cc(-c3cc(Cl)ccc3Cl)ccc2C)c(=O)n2n1CCCC2 [Ex. I-1-c-12]
[2]; 500 g/ha
  Kill rate in % after 5d: 100%

## Cc1ccc(-c2ccc(OC(F)(F)F)cc2)cc1-c1c(OC(=O)C(C)(C)C)n2n(c1=O)CCCC2 [Ex. I-1-b-27]
[1]
  Kill rate in % after 7d: 100%

## CCOC(=O)Oc1c(-c2cc(-c3cccc(C(F)(F)F)c3)ccc2C)c(=O)n2n1CCCC2 [Ex. I-1-c-18]
[3]; 500 g/ha
  Kill rate in % after 7d: 100%

## CCOC(=O)Oc1c(-c2cc(-c3cccc(Cl)c3Cl)ccc2C)c(=O)n2n1CCOCC2 [Ex. I-2-c-10]
[2]; 500 g/ha
  Kill rate in % after 5d: 100%

## Cc1ccc(-c2ccc(Cl)cc2Cl)cc1-c1c(O)n2n(c1=O)CCCC2 [Example I-1-a-11]
[2]; 500 g/ha
  Kill rate in % after 5d: 100%

## Cc1ccc(-c2ccc(Cl)cc2)cc1-c1c(OC(=O)C(C)(C)C)n2n(c1=O)CCOCC2 [Ex. I-2-b-3]
[3]; 500 g/ha
  Kill rate in % after 7d: 83%

## CCOC(=O)Oc1c(-c2cc(-c3ccc(Cl)c(Cl)c3)ccc2C)c(=O)n2n1CCOCC2 [Ex. I-2-c-13]
[3]; 500 g/ha
  Kill rate in % after 7d: 100%
